Test results published in US9364545B2, “Thermosensitive injectable hydrogel for drug delivery” (Taipei Medical University, priority 2014, dated 2016).

What was measured:
C26 tumor = assay: Tumor inhibition study, intratumoral injection; type: in vivo, Balb/c male mice
Description: (§1) The suspension of […] (1.0×10^6 cells/100 μl) was injected subcutaneously in the right flank of Balb/c male mice using 26 G needles. After 7 days tumor size reached 100-300 mm^3. The […] were randomly divided into three groups (n=3) and received following treatments. Group 1 mice were treated with an intratumoral injection of sterile PBS as control group; Group 2, mice received an intratumoral injection of Dox-HA hydrogel; Group 3, mice received an intratumoral injection of free Dox solution (4 mg/kg in 0.1 mL). The mice were weighed and tumor size was measured using a capliper for 10 days post intratumoral injection. The tumor volume (V) was calculated with the following formula V=[length×(width)^2]/2
On day 10, the mice were sacrificed and the tumor masses harvested, weighted, and photographed. Tumor inhibition rate was calculated using the equation. Tumor inhibition rate (%)=(Wc−Wt)/Wc where Wc is the weight of the tumor in the control group and Wt is the weight of the tumor in the test formulation group (L. Chen, X. Sha, X. Jiang, Y. Chen, Q. Ren, X. Fang, Pluronic P105/F127 mixed micelles for the delivery of docetaxel against Taxol-resistant non-small cell lung cancer: optimization and in vitro, in vivo evaluation, International journal of nanomedicine, 8 (2013) 73-84).
The in vivo antitumor efficacy of DHMF-15 hydrogel formulation was evaluated in the C26 tumor-bearing mice model. Mice were randomized into […] when the tumor size reached 100 mm^3. Three groups of mice received intratumoral injection of PBS, DHMF-15 hydrogel, free Dox solution, DMF-15 hydrogel, and DF-15 hydrogel respectively. […] PBS treatments had no substantial effect on C26 tumor growth, and the tumor volumes increased rapidly. After administration for 10 days, the average tumor volume in the PBS treated mice had reached over 1000 mm^3. […] Ranked from high to low inhibition efficacy, the formulations are ordered as follows: DHMF-15, free Dox solution, DMF-15, DF-15, PBS.

[1] = Body weight and death as indication of systemic toxicity; type: in vivo, Balb/c male mice; details: after intratumoral injection, during the experiment
Description: as §1
We also monitored change in body weight during the experiment as an indication of systemic toxicity.

[2] = tested on: C26 colon carcinoma cells; assay: Cell viability, MTT assay; type: cell-based; details: 24 h incubation
Description: (§2) C26 colon carcinoma cells and HT29 human colon cancer cells were cultured with RPMI-1640 with 10% fetal bovine serum and 10% penicillinstreptomycin. MCF-7 human breast cancer cells MEM were cultured with Eagle's MEM with 10% fetal bovine serum and 10% penicillinstreptomycin. Cells were seeded at a density of 5×10^4 cells per well in 24-well plates. After 24 hours of incubation at 37° C. with 5% CO2, the medium was replaced with new medium containing Dox formulation. After 24 hours incubation, cell survival was then measured using tetrazolium salt MTT assay. One hundred microliters of MTT (6 mg/mL) was added to each well for 4 hours. The medium was removed after […] incubation and then 200 μl DMSO was added to dissolve any purple formazan crystal formed. Remove the solvent was removed and dried in an oven at 50° C. for 2 hours. Cell viability was measured by ELISA reader and absorbance set at 520 nm.

[3] = tested on: HT29 human colon cancer cells; assay: Cell viability, MTT assay; type: cell-based; details: 24 h incubation
Description: as §2

[4] = tested on: MCF-7 human breast cancer cells; assay: Cell viability, MTT assay; type: cell-based; details: MCF7 cells, 24 h incubation
Description: as §2

COc1cccc2c1C(=O)c1c(O)c3c(c(O)c1C2=O)C[C@@](O)(C(=O)CO)C[C@@H]3O[C@H]1C[C@H](N)[C@H](O)[C@H](C)O1.Cl [free Dox solution, Doxorubicin Hydrochloride]
Tumor size as % of that in the PBS control group (C26 tumor; after 10 days, intratumoral injection): 42.45% | Tumor weight compared to the control group (C26 tumor; day 10): significantly reduced | Tumor inhibition rate (C26 tumor; excised tumor weight on day 10, (Wc−Wt)/Wc): 80.65% | Toxicity-induced death and body weight loss [1]: neither toxicity-induced death nor serious body weight loss | Cytotoxicity (cell viability) [2]: potent cytotoxicity | Cytotoxicity (cell viability) [3]: potent cytotoxicity | Cytotoxicity (cell viability) [4]: potent cytotoxicity
